Test results as given in ChEMBL document CHEMBL5338775, “Discovery of a Novel Class of PROTACs as Potent and Selective Estrogen Receptor α Degraders to Overcome Endocrine-Resistant Breast Cancer In Vitro and In Vivo” (J Med Chem, 2023).
Calls of active or inactive are those of the source. The calls are words filed in the database; no cut-off is given here.

Key:
T47D [1] = experiment: cells; details: Homo sapiens, 72 h
[2] = target: T1, von Hippel-Lindau disease tumor suppressor/Estrogen receptor (Homo sapiens) (UniProt P03372+P40337); experiment: PROTAC activity at VHL/ERalpha in ER-positive human MCF7 cells assessed as induction of ERalpha degradation at 1 to 5 uM incubated for 12 hrs by Western blot analysis; format: cell-based; details: dose 1-5 µM
T1 sequence (P40337 whole entry, looked up, one chain of several): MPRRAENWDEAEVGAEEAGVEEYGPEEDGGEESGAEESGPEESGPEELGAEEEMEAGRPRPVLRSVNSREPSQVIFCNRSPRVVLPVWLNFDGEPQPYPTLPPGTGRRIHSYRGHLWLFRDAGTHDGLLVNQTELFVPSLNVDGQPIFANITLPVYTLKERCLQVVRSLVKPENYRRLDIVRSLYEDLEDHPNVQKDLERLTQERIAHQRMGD

Estrogen receptor beta [3] = target: T2, Estrogen receptor beta (Homo sapiens, UniProt Q92731); experiment: Binding affinity to ERbeta (unknown origin) assessed as relative binding affinity incubated for 2 hrs by fluorescence polarization assay relative to estradiol
T2 sequence (Q92731 whole entry): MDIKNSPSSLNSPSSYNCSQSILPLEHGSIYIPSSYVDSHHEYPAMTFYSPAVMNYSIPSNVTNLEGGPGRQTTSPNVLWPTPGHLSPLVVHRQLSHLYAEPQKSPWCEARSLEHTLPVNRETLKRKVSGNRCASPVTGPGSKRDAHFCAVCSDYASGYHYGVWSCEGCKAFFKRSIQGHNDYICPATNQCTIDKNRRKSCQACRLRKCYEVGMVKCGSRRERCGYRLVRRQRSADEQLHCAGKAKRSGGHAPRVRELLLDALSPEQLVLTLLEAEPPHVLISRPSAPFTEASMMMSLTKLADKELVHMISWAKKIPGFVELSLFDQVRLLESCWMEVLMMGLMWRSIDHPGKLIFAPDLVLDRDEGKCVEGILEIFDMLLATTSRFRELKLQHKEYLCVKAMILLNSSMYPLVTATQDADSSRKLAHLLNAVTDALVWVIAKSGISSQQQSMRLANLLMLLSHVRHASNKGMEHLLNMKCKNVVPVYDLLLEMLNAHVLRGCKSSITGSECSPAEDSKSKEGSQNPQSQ

in vitro = details: human, MCF-10A cells
cells = details: Homo sapiens, Tamoxifen-resistant LCC2 cell, 72 h
[4] = Selectivity index, ratio of Ki for ERalpha (unknown origin) to Ki for ERbeta (unknown origin)
MCF7 = experiment: cells; details: Homo sapiens, MCF7, 72 h
T47D [5] = experiment: cells; details: Homo sapiens, 72 h; remark: listed apart in the source
Estrogen receptor = target: T3, Estrogen receptor (Homo sapiens, UniProt P03372)
T3 sequence (P03372 whole entry): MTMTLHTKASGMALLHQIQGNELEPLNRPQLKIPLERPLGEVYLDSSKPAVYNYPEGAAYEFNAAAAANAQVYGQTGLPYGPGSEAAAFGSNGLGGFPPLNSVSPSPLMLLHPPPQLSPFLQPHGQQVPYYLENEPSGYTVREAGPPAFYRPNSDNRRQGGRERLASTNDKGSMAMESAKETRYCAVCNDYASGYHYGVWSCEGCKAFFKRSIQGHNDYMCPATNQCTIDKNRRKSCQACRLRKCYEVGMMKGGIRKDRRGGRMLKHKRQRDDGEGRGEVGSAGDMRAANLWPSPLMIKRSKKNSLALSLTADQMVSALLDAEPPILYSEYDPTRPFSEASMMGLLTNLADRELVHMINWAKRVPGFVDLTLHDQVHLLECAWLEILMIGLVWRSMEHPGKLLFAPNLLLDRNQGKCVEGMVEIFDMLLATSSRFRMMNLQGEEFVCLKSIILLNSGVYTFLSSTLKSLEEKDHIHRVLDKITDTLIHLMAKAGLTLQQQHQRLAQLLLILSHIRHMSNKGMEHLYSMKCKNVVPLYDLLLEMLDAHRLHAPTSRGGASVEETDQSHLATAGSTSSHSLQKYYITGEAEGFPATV

Estrogen receptor beta [6] = target: T2, Estrogen receptor beta
MDA-MB-231 = experiment: cells; details: Homo sapiens, MDA-MB-231, 72 h
[7] = Selectivity ratio of relative binding affinity for ERalpha (unknown origin) to relative binding affinity to ERbeta (unknown origin)
T47D [8] = experiment: cells; details: Homo sapiens, 72 h; remark: listed apart in the source
[9] = target: T1, von Hippel-Lindau disease tumor suppressor/Estrogen receptor (Homo sapiens); experiment: PROTAC activity at VHL/wild type ERalpha in ER-positive human MCF7 cells assessed as induction of ERalpha degradation at 1 uM incubated for 12 hrs by Western blot analysis; format: cell-based
[10] = target: T1, von Hippel-Lindau disease tumor suppressor/Estrogen receptor (Homo sapiens); experiment: PROTAC activity at VHL/wild type ERalpha in ER-positive human T47D cells assessed as induction of ERalpha degradation at 2 uM incubated for 12 hrs by Western blot analysis; format: cell-based
[11] = target: T1, von Hippel-Lindau disease tumor suppressor/Estrogen receptor (Homo sapiens); experiment: PROTAC activity at VHL/ERalpha in ER-positive human tamoxifen-resistant LCC2 cells assessed as induction of ERalpha degradation at 2 uM incubated for 12 hrs by Western blot analysis; format: cell-based; details: tamoxifen-resistant LCC2 cell

| SMILES | IC50 (T47D [1]) | Activity [2] | RBA (Estrogen receptor beta [3]) | IC50 at 72 h (in vitro) | IC50 (cells) | Ratio Ki [4] | IC50 (MCF7) | IC50 (T47D [5]) | Ki (Estrogen receptor) | Ki (Estrogen receptor beta [6]) | IC50 (MDA-MB-231) | Selectivity ratio [7] | IC50 (T47D [8]) | Activity [9] | Activity [10] | Activity [11] |
| --- | --- | --- | --- | --- | --- | --- | --- | --- | --- | --- | --- | --- | --- | --- | --- | --- |
| Cc1ncsc1-c1ccc([C@H](C)NC(=O)[C@@H]2C[C@H](O)CN2C(=O)[C@@H](NC(=O)CCCCCOc2ccc(N(CC(F)(F)F)S(=O)(=O)C3CC4OC3C(c3ccc(O)cc3)=C4c3ccc(O)cc3)cc2)C(C)(C)C)cc1 (some centres not stated) | > 50 µM | inactive | 0.05% | > 100 µM | > 50 µM | 6.2 | > 50 µM | > 50 µM | 2.54 µM | 15.7 µM | > 100 µM | 1.6 | > 50 µM | – | – | – |
| COc1ccc(N(CC(F)(F)F)S(=O)(=O)C2CC3OC2C(c2ccc(OCCCCCC(=O)N[C@H](C(=O)N4C[C@H](O)C[C@H]4C(=O)NCc4ccc(-c5scnc5C)cc4)C(C)(C)C)cc2)=C3c2ccc(O)cc2)cc1 (some centres not stated) | > 30 µM | – | 0.07% | > 100 µM | > 30 µM | 6.08 | > 10 µM | > 30 µM | 1.85 µM | 11.2 µM | > 100 µM | 1.57 | > 30 µM | inactive | – | – |
| CCN(c1ccc(OCCCCCC(=O)N[C@H](C(=O)N2C[C@@H](O)C[C@H]2C(=O)N[C@@H](C)c2ccc(-c3scnc3C)cc2)C(C)(C)C)cc1)S(=O)(=O)C1CC2OC1C(c1ccc(O)cc1)=C2c1ccc(O)cc1 (some centres not stated) | > 50 µM | inactive | 0.16% | > 100 µM | > 50 µM | 3.15 | > 50 µM | > 50 µM | 1.56 µM | 4.91 µM | > 100 µM | 0.81 | > 50 µM | – | – | – |
| Cc1ncsc1-c1ccc(CNC(=O)[C@@H]2C[C@@H](O)CN2C(=O)[C@@H](NC(=O)CCCCCOc2ccc(N(CC(F)(F)F)S(=O)(=O)C3CC4OC3C(c3ccc(O)cc3)=C4c3ccc(O)cc3)cc2)C(C)(C)C)cc1 (some centres not stated) | 12.6 µM | – | 0.04% | 1.35 µM | 13 µM | 6.78 | 0.11 µM | 11.3 µM | 2.9 µM | 19.7 µM | > 100 µM | 1.75 | 9.28 µM | Active | Active | Active |
| CCN(c1ccc(OCCCCCC(=O)N[C@H](C(=O)N2C[C@H](O)C[C@H]2C(=O)NCc2ccc(-c3scnc3C)cc2)C(C)(C)C)cc1)S(=O)(=O)C1CC2OC1C(c1ccc(O)cc1)=C2c1ccc(O)cc1 (some centres not stated) | 0.76 µM | – | 0.08% | 5.17 µM | 14.2 µM | 5.32 | 1.61 µM | 0.73 µM | 1.85 µM | 9.83 µM | > 100 µM | 1.38 | 1.78 µM | Active | Active | Active |
| COc1ccc(N(CC(F)(F)F)S(=O)(=O)C2CC3OC2C(c2ccc(OCCCCCC(=O)N[C@H](C(=O)N4C[C@H](O)C[C@H]4C(=O)N[C@@H](C)c4ccc(-c5scnc5C)cc4)C(C)(C)C)cc2)=C3c2ccc(O)cc2)cc1 (some centres not stated) | > 30 µM | – | 0.03% | > 100 µM | > 30 µM | 10.3 | > 10 µM | > 30 µM | 2.54 µM | 26.2 µM | > 100 µM | 2.67 | > 30 µM | inactive | – | – |
